# In patent publication US20250320299A1, “BISPECIFIC DENDRITIC CELL ENGAGER AND USES THEREOF” (OBI PHARMA, INC., priority 2021, published 2025):
# T1: human CRT-ECD protein (OBI Pharma Inc., in-house produced) (human, UniProt P27797 18-417, limits assumed)
# T1 construct: extracellular domain; Coated at 200 ng per well for ELISA; also called calreticulin
# T1 sequence (looked up): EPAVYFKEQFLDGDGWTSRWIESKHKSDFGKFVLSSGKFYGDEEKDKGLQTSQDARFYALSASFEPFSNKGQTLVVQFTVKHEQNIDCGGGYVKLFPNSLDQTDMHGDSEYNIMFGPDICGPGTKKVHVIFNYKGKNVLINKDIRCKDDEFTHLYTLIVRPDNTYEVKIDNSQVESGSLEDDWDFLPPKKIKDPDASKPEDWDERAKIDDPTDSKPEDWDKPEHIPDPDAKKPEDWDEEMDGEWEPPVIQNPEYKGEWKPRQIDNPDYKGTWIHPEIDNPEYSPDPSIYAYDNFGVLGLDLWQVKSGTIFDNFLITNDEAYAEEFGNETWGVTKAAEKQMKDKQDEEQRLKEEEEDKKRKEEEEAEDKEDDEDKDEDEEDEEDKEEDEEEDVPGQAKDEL
# Experiments:
# [1] = system: Mouse 4T1 breast cancer cells; test: Exposure of endogenous danger signals (surface CRT, Hsp70) on tumor cells, flow cytometry; format: cell-based; conditions: 100 μM Oxaliplatin for two days
# [2] = system: Mouse 4T1 breast cancer cells; test: ATP release to supernatant, CellTiter-Glo Luminescent Assay; format: cell-based; conditions: 100 μM Oxaliplatin for two days
# Protocol: Furthermore, supernatants were collected and centrifuged then the ATP in the supernatant was determined by CellTiter-Glo® Luminescent Assay (Promega, Cat #G7570). Briefly, an equal volume of the collected supernatants and reagent were mixed and incubated in the dark for 10 minutes at room temperature. The luminescence was determined by a luminometer (MolecularDevice, SpectraMax L).
# [3] = system: Mouse Pan T cells with co-cultured MutuDC 1940 cells and 4T1 cells; test: T cell proliferation primed by dendritic cell loaded with tumor cell; format: cell-based; conditions: DCs cocultured with 4T1 cells treated with 100 μM Oxaliplatin, T cells 72 hours
# Protocol: Then, cells were collected and counted. […] Cells were washed and counted. 5-fold Far Red labeled mouse Pan T cells were added to the co-cultured MutuDC 1940 cells and 4T1 cells for another 72 hours. […] Another CD8^+T-cell proliferation was calculated by gating on CD3^+/CD4^− cells and setting a marker that contained at least 98% of cells in unstimulated samples.
# [4] = system: 4T1 breast cancer cells; conditions: Oxaliplatin 5 mg/kg intravenous, BsAb 20 μg intratumor, days 7, 13 and 20; sacrificed Day 27
# Protocol: 1×10^5 4T1 breast cancer cells was injected through subcutaneous injection (s.c. injection) on the right flank of mice in 100 μL sterile PBS. Five mice of each were randomized into three treatment groups on day 7 following tumor inoculation when the tumor size reached 50 mm^3. […] Tumor length, and width were recorded weekly. Tumor volumes were calculated using the formula: volume (mm^3)=([width]^2×length)/2. Results were shown as arithmetic meantstandard error of the mean (SEM). Statistical comparisons were performed by two-tailed Student's t-test. Significance set of probability “p” was set as the level at *p<0.05, **p<0.01, ***, p<0.001. […] Mice were sacrificed at Day 27.
# [5] = system: MutuDC 1940 cells and 4T1 cells; test: Dendritic cell-mediated phagocytosis of tumor cell; conditions: 4T1 cells treated with 100 μM Oxaliplatin for two days; untreated 31.03%
# Protocol: Mouse 4T1 breast cancer cells were labeled with CellTrace™ Far Red staining solution (ThermoFisher, Cat #C34564) at 37° C. for 30 minutes and then washed with PBS. Cells were seeded overnight in a 6-well plate. After cultivating overnight, cells were treated or not with 100 μM Oxaliplatin for two days. Then, cells were collected and counted. An equal number of MutuDC 1940 cells and 4T1 cells were mixed and incubated at 37° C. for the indicated time. After treatment, cells were collected and stained with anti-mouse CD11c-BV421 (Biolegend, Cat #117330) antibody at 4° C. for 30 minutes. Cells were washed and centrifuged, then analyzed by FACS CANTOII. 4T1 cell incorporation in MutuDC 1940 cells evaluated as the percentage of CD11c positive for far-red fluorescence incorporation.
# [6] = system: oxaliplatin treated 4T1 cells; test: Cell binding assay (FACS) on oxaliplatin treated tumor cells; parameters: species or system mouse; conditions: 30 nM antibody
# [7] = target: T1, human CRT-ECD protein (OBI Pharma Inc., …); test: ELISA, antigen coated at 200 ng per well, anti-mouse IgG-HRP detection
Molecule,surface Hsp70 on live 4T1 cells ([1]; untreated 3.2%) [%],surface CRT on live 4T1 cells ([1]; untreated 6.5%) [%],ATP released to the medium [2],proliferation of CD8+ T-cells [3],4T1 tumor growth versus control [4],DC-mediated phagocytosis of 4T1 cells by MutuDC 1940 cells (percentage of CD11c positive for far-red) [5] [%],binding activity on oxaliplatin treated 4T1 cells [6] [%],EC50 [7] [nM]
O=C1[O][Pt]2([NH][C@@H]3CCCC[C@H]3[NH]2)[O]C1=O [Oxaliplatin],11,59,increased,increased,no difference,43.3,–,–
"α-CRT antibody 5B3-1 (OBI Pharma, Inc.) (antibody, V domains shown, also called Anti-CRT (5B3-1)) VH: EVQLVETGGGLVQPKGSLKLSCAASGFSFNNNAMNWVRQAPGKGLEWVARIRSKTNNYEIYYAESVKDRFTISRDDSQSMLYLQMNNLKTDDTAMYYCVRDYNHVGFVYWGQGTQVTVST VL: DIVMTQTTPSVPVTPGESVSISCRSSKSLLYSNGNTYLYWFLQRPGQSPQLLIYRMSNLASGVPDRFSGSGSGTAFTLRISRVEAEDVGVYYCMQHLEYPFTFGAGTKLELK",–,–,–,–,–,–,41.2,0.407
